Measurements published in US7320867B2, “Linker compound, ligand, and producing method thereof” (Japan Science and Technology Agency, priority 2000, dated 2008).

How the values were obtained:
[1] = target: recombinant von Willebrand's Factor (rvWF) (Homo sapiens, UniProt P04275); test: SPR measurement of binding between ligand-introduced chip and rvWF; settings: for Kd: read-out: Dissociation constant KD
Source text: That is, by the procedure described below, a ligand (Compound 14) was immobilized on a surface of a glass substrate with a thin gold film deposited thereon, and the binding behavior of Compound 14 with a recombinant von Willebrand's Factor (hereinafter abbreviated to rvWF), which is a heparin binding protein, was observed.
First, a sensor chip (manufactured by Japan Laser Electronics Co., Ltd.), prepared by depositing a gold film of 50 nm thick on a glass substrate of 13 mm×20 mm×0.7 mm, was placed in a UV ozone washer (product name: NL-UV253, Japan Laser Electronics Co., Ltd.), and was exposed to ultraviolet rays for 20 minutes so as to wash the gold surface of the sensor chip with ozone. Subsequently, the sensor chip was mounted on a Teflon™ cell holder in a cell. The cell, to which 50 μL of a methanol solution containing 0.1 mM of Compound 14 was added, was sealed and then gently shaken overnight at room temperature with a Bio Dancer (product name, New Brunswick Scientific Co., Ltd.). Thereafter, the cell was washed six times with 100 μL of methanol, and the sensor chip was removed from the Teflon™ cell holder. The removed sensor chip was then immersed in a Petri dish full of methanol and washed twice by gently shaking the Petri dish. Thereafter, the sensor chip was washed with water and methanol in this order in the same manner as described above, so as to obtain a ligand-introduced chip (ligand carrier). The ligand carrier was air-dried and then mounted on a sensor chip cartridge (glass prism) of a surface plasmon resonance apparatus SPR670 (product name, Japan Laser Electronics Co., Ltd.).
Except that an rvWF solution was used instead of the BSA solution (5-2) injected onto the ligand-introduced chip (obtained in 5-1), the same procedure as in (5-2) was carried out to inject the rvWF solution onto the surface of the ligand-introduced chip. It is to be noted that rvWF was dissolved in the running buffer so as to prepare an rvWF solution with a concentration of 125 nM to 1600 nM.
The rvWF solution was injected onto the surface of the ligand-introduced chip at varying concentrations, and a response (RU; response unit) based on bonding between Compound 14 and rvWF was measured as a function of injection time (sec) of the rvWF solution using the surface plasmon resonance apparatus. […]
In addition, a dissociation constant (KD), a binding rate constant (ka), and a dissociation rate constant (kd) were calculated, using software attached to the surface plasmon resonance apparatus (SPR670), based on a result (FIG. 1) yielded by observing the binding behavior of Compound 14 (ligand) with rvWF.
Then, except that the Compound 25 was used instead of the Compound 14, the procedure in (5-1) of Example 5 was followed to obtain a ligand-introduced chip. […] Thereafter, according the procedure in (5-3) of Example 5, the rvWF solution was injected onto the surface of the ligand-introduced chip, and changes in resonance angle as a function of injection time of the rvWF solution was measured using the surface plasmon resonance apparatus, so as to examine the binding behavior of Compound 25 with rvWF.
In addition, a dissociation constant (KD), a binding rate constant (ka), and a dissociation rate constant (kd) were calculated, based on FIG. 2, according to the procedure in (5-3) of Example 5.

[2] = target: bovine serum albumin (BSA) (Bos taurus, UniProt P02769); test: SPR examination of nonspecific (hydrophobic) interaction between ligand-introduced chip and protein; assay type: binding; settings: BSA 1 mg/mL in PBS pH 7.4, 60 μL at 15 μL/min, 25° C.
[3] = ligand immobilized on gold sensor chip, rvWF 125 nM to 1600 nM in PBS pH 7.4, 25° C., calculated with SPR670 software

recombinant von Willebrand's Factor (rvWF), sequence (P04275 23-2813): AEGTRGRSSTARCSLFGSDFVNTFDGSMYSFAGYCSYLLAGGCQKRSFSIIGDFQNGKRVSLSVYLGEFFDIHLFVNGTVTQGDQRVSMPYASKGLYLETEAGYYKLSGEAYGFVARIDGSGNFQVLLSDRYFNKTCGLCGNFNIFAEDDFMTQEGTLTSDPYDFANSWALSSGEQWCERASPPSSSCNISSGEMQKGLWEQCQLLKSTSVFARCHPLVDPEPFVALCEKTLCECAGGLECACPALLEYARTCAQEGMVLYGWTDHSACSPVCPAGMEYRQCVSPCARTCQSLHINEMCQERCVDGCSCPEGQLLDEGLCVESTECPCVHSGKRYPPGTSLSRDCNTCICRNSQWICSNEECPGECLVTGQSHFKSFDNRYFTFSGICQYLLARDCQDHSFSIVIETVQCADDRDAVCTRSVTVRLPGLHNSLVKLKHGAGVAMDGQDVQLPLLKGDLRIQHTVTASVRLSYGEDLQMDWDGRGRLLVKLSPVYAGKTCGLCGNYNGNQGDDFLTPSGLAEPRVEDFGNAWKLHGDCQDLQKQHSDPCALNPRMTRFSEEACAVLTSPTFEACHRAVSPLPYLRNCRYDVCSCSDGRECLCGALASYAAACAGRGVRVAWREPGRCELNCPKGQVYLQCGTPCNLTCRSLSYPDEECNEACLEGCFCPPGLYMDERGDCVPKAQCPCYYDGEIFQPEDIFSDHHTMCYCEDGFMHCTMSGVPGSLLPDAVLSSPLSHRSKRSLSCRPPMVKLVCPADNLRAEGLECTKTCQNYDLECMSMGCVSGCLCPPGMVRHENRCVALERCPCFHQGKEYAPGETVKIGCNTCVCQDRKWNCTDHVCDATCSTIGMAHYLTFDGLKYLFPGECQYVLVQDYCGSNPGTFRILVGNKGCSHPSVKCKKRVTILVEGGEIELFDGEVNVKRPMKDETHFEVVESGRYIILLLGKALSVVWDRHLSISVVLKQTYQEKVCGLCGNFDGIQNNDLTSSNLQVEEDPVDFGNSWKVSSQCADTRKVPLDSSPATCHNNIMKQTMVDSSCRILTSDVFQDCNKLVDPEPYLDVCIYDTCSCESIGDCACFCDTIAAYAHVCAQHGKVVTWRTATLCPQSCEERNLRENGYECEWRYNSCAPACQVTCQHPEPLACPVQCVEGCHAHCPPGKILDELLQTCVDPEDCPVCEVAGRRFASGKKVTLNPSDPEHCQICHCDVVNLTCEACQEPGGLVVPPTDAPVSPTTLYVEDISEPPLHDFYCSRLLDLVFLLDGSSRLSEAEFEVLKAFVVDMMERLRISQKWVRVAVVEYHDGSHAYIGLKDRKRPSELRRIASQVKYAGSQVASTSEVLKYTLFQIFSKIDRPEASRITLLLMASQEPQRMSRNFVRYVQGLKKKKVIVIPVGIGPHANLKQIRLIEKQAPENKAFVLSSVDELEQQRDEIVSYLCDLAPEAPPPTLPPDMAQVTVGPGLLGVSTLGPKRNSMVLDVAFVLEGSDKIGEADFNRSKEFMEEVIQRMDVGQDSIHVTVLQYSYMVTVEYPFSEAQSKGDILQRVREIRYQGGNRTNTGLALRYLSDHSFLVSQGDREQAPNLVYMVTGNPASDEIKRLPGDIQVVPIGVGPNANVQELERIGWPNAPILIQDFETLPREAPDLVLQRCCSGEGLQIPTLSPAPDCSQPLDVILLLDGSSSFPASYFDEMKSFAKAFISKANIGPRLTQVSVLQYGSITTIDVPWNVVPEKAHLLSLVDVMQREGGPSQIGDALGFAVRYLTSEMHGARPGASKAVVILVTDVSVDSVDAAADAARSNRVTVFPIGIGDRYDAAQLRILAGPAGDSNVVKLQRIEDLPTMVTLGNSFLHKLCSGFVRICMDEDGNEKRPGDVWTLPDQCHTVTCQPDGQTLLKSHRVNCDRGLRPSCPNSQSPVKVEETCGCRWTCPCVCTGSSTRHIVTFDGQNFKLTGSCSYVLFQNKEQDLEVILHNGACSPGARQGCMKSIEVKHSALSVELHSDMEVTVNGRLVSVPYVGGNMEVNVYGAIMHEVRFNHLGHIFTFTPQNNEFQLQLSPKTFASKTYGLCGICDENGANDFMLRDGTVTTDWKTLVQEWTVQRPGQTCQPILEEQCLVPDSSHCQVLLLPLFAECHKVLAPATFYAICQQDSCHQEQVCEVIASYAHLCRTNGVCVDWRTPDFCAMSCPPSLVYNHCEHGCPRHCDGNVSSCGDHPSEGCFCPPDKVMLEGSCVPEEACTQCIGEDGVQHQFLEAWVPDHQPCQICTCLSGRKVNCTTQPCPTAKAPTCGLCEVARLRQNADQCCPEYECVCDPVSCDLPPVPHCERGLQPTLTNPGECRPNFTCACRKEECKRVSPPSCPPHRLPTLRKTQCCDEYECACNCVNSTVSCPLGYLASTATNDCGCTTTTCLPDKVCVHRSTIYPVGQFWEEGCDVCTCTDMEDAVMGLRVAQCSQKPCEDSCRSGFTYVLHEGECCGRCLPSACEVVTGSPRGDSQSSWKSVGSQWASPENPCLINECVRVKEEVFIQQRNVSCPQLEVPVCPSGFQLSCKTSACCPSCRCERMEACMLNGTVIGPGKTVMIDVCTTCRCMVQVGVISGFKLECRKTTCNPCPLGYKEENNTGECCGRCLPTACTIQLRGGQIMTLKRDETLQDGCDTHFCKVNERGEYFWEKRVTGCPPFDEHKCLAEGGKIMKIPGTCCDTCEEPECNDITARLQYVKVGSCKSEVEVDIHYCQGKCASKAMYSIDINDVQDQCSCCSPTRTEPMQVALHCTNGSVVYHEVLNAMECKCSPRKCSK
bovine serum albumin (BSA), sequence (P02769 25-607): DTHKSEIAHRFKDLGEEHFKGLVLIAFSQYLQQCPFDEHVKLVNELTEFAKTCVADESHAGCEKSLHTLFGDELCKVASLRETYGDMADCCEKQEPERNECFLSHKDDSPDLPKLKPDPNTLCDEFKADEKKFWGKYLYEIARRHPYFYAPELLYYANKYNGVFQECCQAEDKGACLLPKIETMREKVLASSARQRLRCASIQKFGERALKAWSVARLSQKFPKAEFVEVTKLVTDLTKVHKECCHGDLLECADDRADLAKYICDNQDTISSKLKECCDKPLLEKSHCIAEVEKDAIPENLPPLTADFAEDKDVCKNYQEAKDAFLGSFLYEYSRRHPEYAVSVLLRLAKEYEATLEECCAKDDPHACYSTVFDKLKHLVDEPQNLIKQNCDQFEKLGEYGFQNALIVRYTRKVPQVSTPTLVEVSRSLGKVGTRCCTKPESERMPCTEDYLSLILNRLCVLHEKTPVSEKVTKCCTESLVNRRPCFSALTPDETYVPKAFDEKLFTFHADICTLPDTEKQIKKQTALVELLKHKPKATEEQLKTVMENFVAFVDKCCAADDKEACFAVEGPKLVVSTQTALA

Compound: COC1C(COS(=O)(=O)O)OC(OC2C(C(=O)O)OC(OCC(O)C(O)C(O)C(O)CNc3cccc(NC(=O)CCCCC4CCSS4)c3)C(OS(=O)(=O)O)C2O)C(NS(=O)(=O)O)C1O (stereo not shown) [Compound 25]
- kon ([1]; ligand immobilized on gold sensor chip, rvWF 125 nM to 1600 nM in PBS pH 7.4, 25° C., calculated with SPR670 software, read-out: Binding rate constant ka): 8380 M⁻¹ s⁻¹
- Kd [1, 3]: 2600 nM
- koff ([1]; ligand immobilized on gold sensor chip, rvWF 125 nM to 1600 nM in PBS pH 7.4, 25° C., calculated with SPR670 software, read-out: Dissociation rate constant kd): 0.0219 s⁻¹
- Nonspecific interaction based on hydrophobic interaction (resonant angle change) [2]: no nonspecific interaction

Compound: COC1C(COS(=O)(=O)O)OC(OC2C(C(=O)O)OC(OCC(O)C(O)C(O)C(O)CNc3cccc(NC(=O)CCC(CCC(=O)Nc4cccc(NCC(O)C(O)C(O)C(O)COC5OC(C(=O)O)C(OC6OC(COS(=O)(=O)O)C(OC)C(O)C6NS(=O)(=O)O)C(O)C5OS(=O)(=O)O)c4)(CCC(=O)Nc4cccc(NCC(O)C(O)C(O)C(O)COC5OC(C(=O)O)C(OC6OC(COS(=O)(=O)O)C(OC)C(O)C6NS(=O)(=O)O)C(O)C5OS(=O)(=O)O)c4)NC(=O)CNC(=O)CCCCC4CCSS4)c3)C(OS(=O)(=O)O)C2O)C(NS(=O)(=O)O)C1O (stereo not shown) [Compound 14]
- Affinity for rvWF compared with ligand-introduced chip using Compound 25 ([1]; comparison from Table 1): higher affinity for rvWF
- Kd [1, 3]: 1200 nM
- Nonspecific interaction based on hydrophobic interaction (resonant angle change) [2]: almost no resonant angle change
